Laboratory results: patent US20260138961A1, “MODULATORS OF MITOCHONDRIAL DNA REPLICATION” (Pretzel Therapeutics, Inc., priority 2022, published 2026)

These compounds were tested against T1, POLγA:A467T (Homo sapiens, UniProt P54098, A467T) (assay: DNA polymerization assay, POLγA:A467T mutant). Settings: stimulation of polymerase activity, primed M13mp18 ssDNA, 37° C. 2 hours; read-out: A467T AC50.
T1 sequence (P54098 1-1239 A467T): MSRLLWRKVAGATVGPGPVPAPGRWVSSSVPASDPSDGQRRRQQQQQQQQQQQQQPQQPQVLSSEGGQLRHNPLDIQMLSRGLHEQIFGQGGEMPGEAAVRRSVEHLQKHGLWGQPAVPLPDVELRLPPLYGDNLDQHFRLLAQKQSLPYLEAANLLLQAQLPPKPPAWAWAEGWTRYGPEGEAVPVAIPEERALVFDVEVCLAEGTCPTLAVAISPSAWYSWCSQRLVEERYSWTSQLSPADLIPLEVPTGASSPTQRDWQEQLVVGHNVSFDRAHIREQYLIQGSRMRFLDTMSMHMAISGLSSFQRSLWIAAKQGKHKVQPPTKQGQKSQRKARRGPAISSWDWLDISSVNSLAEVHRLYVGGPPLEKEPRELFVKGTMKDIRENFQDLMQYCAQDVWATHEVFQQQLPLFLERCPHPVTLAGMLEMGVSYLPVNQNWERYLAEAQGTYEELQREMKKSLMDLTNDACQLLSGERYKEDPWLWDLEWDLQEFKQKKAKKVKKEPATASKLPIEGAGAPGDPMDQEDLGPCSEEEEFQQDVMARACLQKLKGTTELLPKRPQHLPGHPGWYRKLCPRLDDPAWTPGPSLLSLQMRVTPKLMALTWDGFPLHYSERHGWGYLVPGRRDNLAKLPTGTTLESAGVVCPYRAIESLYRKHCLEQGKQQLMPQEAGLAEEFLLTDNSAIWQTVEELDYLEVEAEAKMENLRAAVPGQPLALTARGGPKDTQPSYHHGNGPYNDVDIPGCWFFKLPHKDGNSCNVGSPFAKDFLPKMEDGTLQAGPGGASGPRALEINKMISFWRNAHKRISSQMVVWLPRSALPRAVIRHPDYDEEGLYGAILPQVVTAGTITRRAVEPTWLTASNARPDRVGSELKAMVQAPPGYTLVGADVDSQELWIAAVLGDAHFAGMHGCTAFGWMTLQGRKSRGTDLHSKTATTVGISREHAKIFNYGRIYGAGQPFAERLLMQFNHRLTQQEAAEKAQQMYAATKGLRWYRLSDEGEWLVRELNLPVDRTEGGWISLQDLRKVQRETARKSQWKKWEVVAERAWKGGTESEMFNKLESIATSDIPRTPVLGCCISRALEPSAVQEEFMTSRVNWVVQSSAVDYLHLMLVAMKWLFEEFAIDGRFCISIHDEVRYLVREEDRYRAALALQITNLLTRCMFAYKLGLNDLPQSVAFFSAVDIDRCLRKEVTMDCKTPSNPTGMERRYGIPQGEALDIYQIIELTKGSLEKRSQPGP
T1 sequence (Q9UHN1 1-485 partner): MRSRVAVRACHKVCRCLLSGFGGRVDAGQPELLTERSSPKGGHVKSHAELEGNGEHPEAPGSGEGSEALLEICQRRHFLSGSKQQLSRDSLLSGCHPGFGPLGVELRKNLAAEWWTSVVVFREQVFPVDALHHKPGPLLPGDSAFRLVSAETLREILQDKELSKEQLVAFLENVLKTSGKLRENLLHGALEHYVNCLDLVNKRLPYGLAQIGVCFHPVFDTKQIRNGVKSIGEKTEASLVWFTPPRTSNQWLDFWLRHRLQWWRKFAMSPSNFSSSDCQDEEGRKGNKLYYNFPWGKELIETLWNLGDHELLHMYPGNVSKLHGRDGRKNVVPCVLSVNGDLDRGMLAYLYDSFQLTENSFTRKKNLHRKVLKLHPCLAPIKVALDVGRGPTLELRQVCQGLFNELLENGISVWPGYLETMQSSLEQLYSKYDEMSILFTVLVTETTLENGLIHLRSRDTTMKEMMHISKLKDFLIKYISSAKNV
Format: biochemical
Description: DNA Polymerization Assay to Monitor Effects on Human Wildtype POLγ and Four Disease-Causing Mutant Variants of Human POLγ.
The ability of small molecules to stimulate the polymerase activity of POLγ was analyzed in a quantitative fluorescence SYBR Green I assay with fluorescence intensity (FI) readout.
In the presence of dNTPs, wild type human POLγ and mutant derivatives thereof were incubated with single-stranded, circular M13mp18 ssDNA hybridized to a short DNA oligonucleotide that functions as a primer for initiation of DNA synthesis. POLγ and mutant derivatives thereof will extend the primer and use the M13mp18 molecule as a template to synthesize long stretches of double-stranded DNA. SYBR Green I, which is a double-stranded DNA-binding dye, was used to quantify formation of double-stranded DNA in the reaction. When bound to double-stranded DNA, SYBR Green I fluorescence increases by up to 100-fold.
The assay was performed in the 384-well plate format. Upon addition of compounds, changes in double-stranded DNA synthesis activity can be monitored by following effects on fluorescent intensity.
The reactions also contained the accessory POLγB subunit, and the human mitochondrial single-stranded DNA binding protein (mtSSB).
The DNA template mixture used in the assay contained 0.5 nM primed M13 mp18 ssDNA, 400 nM mtSSB, 0.1 mM Tris-HCl (pH 8.0), 0.1 mM dNTP, 10 mM MgCl2, 0.1 mg/mL BSA, 1 mM TCEP solution, and 0.02% Triton X-100. The DNA template mixture for the wild type protein contained either 100 μM dNTP, 1 μM dNTP, or 0.1 μM dNTP, designated in Table 2 as 100 μM, 1 μM, and 0.1 μM, respectfully.
Microplates with compounds (0.1 μL in each well) to be tested in the assay were prepared from 10 mM compound stocks in 100% DMSO, and equal amounts of DMSO without any compound were added to positive and negative control wells.
The protein mixture was dispensed (5 μL into each well) into compound plates and incubated at 37° C. for 15 minutes. After incubation, 5 μL of the DNA template mixture was dispensed into each well. The plates were then incubated at 37° C. for 2 hours.
During incubation, a combined stop buffer and detection reagent solution was prepared. The buffer contained 25 mM EDTA (pH 8.0), 0.02% Triton X-100, and SYBR Green I [Invitrogen] diluted 10,000× (for fluorescent readout). EDTA will stop the enzymatic reaction by chelating magnesium ions.
An AC50 of over 100 µM was found for `Cc1nc2c(NS(=O)(=O)c3cc(C)c(Cl)cc3C)cccc2s1` [Example 99, 4-chloro-2,5-dimethyl-N-(2-methylbenzo[d]thiazol-4-yl)benzenesulfonamide] in this work. An AC50 of over 100 µM was found for `Cc1cc(S(=O)(=O)N[C@@H]2CCCN(C(=O)[C@H]3CCCN3C)C2)c(C)cc1Cl` [Example 100, 4-chloro-2,5-dimethyl-N-((R)-1-(methyl-D-prolyl)piperidin-3-yl)benzenesulfonamide] in this work. An AC50 of over 100 µM was found for `Cc1cc(S(=O)(=O)N[C@H]2CCCN(C(=O)[C@@H]3CCCN3C)C2)c(C)cc1Cl` [Example 101, 4-chloro-2,5-dimethyl-N-((S)-1-(methyl-L-prolyl)piperidin-3-yl)benzenesulfonamide] in this work. An AC50 of over 100 µM was found for `Cc1cnc(-c2ccc(Cl)c(NS(=O)(=O)c3cc(C)c(Cl)cc3C)c2)s1` [Example 102, 4-chloro-N-(2-chloro-5-(5-methylthiazol-2-yl)phenyl)-2,5-dimethylbenzenesulfonamide] in this work. An AC50 of over 100 µM was found for `Cc1cnc(-c2cc(NS(=O)(=O)c3cc(C)c(Cl)cc3C)ccc2C)s1` [Example 103, 4-chloro-2,5-dimethyl-N-(4-methyl-3-(5-methylthiazol-2-yl)phenyl)benzenesulfonamide] in this work. An AC50 of over 100 µM was found for `Cc1cc(S(=O)(=O)N[C@@H]2CCCN(C(=O)[C@@H]3CCCN3C)C2)c(C)cc1Cl` [Example 104, 4-chloro-2,5-dimethyl-N-((R)-1-(methyl-L-prolyl)piperidin-3-yl)benzenesulfonamide] in this work. An AC50 of over 100 µM was found for `Cc1cc(S(=O)(=O)Nc2cccc(C(=O)N3CCCC4(CC4)C3)c2)c(C)cc1Cl` [Example 105, N-(3-(5-azaspiro[2.5]octane-5-carbonyl)phenyl)-4-chloro-2,5-dimethylbenzenesulfonamide] in this work. An AC50 of over 100 µM was found for `Cc1cc(S(=O)(=O)Nc2cccc(C(=O)N3CCCOC(C)(C)C3)c2)c(C)cc1Cl` [Example 106, 4-chloro-N-(3-(2,2-dimethyl-1,4-oxazepane-4-carbonyl)phenyl)-2,5-dimethylbenzenesulfonamide] in this work. An AC50 of 28 µM was found for `Cc1cc(S(=O)(=O)Nc2cccc(C(=O)N3CCc4cn[nH]c4C3)c2)c(C)cc1Cl` [Example 107, 4-chloro-2,5-dimethyl-N-(3-(4,5,6,7-tetrahydro-1H-pyrazolo[3,4-c]pyridine-6-carbonyl)phenyl)benzenesulfonamide] in this work. An AC50 of over 100 µM was found for `Cc1cc(S(=O)(=O)Nc2cccc(C(=O)N3C[C@H](C)[C@@H](N)C3)c2)c(C)cc1Cl` [Example 108, N-(3-((3R,4S)-3-amino-4-methylpyrrolidine-1-carbonyl)phenyl)-4-chloro-2,5-dimethylbenzenesulfonamide] in this work. An AC50 of over 100 µM was found for `Cc1cc(S(=O)(=O)Nc2cccc(C(=O)N(C)c3ccccn3)c2)c(C)cc1Cl` [Example 109, 3-((4-chloro-2,5-dimethylphenyl)sulfonamido)-N-methyl-N-(pyridin-2-yl)benzamide] in this work. An AC50 of over 100 µM was found for `Cc1cc(NS(=O)(=O)c2cc(C)c(Cl)cc2C)cc(-c2ncc(C)s2)c1` [Example 110, 4-chloro-2,5-dimethyl-N-(3-methyl-5-(5-methylthiazol-2-yl)phenyl)benzenesulfonamide] in this work. An AC50 of over 100 µM was found for `Cc1cnc(-c2cc(NS(=O)(=O)c3cc(C)c(Cl)cc3C)ccc2Cl)s1` [Example 111, 4-chloro-N-(4-chloro-3-(5-methylthiazol-2-yl)phenyl)-2,5-dimethylbenzenesulfonamide] in this work. An AC50 of over 100 µM was found for `Cc1cc(S(=O)(=O)Nc2cccc(C(=O)N(C(C)C)C3COC3)c2)c(C)cc1Cl` [Example 112, 3-((4-chloro-2,5-dimethylphenyl)sulfonamido)-N-isopropyl-N-(oxetan-3-yl)benzamide] in this work. An AC50 of over 100 µM was found for `Cc1cc(S(=O)(=O)Nc2cccc(C(=O)N(CC(N)=O)C3CCCC3)c2)c(C)cc1Cl` [Example 113, N-(2-amino-2-oxoethyl)-3-((4-chloro-2,5-dimethylphenyl)sulfonamido)-N-cyclopentylbenzamide] in this work. An AC50 of over 100 µM was found for `Cc1cc(S(=O)(=O)Nc2cccc(C(=O)N3CCc4ncnc(C)c4C3)c2)c(C)cc1Cl` [Example 114, 4-chloro-2,5-dimethyl-N-(3-(4-methyl-5,6,7,8-tetrahydropyrido [4,3-d]pyrimidine-6-carbonyl)phenyl)benzenesulfonamide] in this work. An AC50 of over 100 µM was found for `Cc1cc(S(=O)(=O)Nc2cccc(C(=O)N3C[C@@H](F)C[C@H](F)C3)c2)c(C)cc1Cl` [Example 115, 4-chloro-N-(3-((3S,5S)-3,5-difluoropiperidine-1-carbonyl)phenyl)-2,5-dimethylbenzenesulfonamide] in this work. An AC50 of over 100 µM was found for `Cc1cc(Cl)ccc1S(=O)(=O)Nc1cccc(C(=O)N2CCC[C@H]2C)c1` [Example 116, (R)-4-chloro-2-methyl-N-(3-(2-methylpyrrolidine-1-carbonyl)phenyl)benzenesulfonamide] in this work. An AC50 of over 100 µM was found for `Cc1cc(S(=O)(=O)Nc2cccc(C(=O)N3CCC[C@H]3C)c2)ccc1Cl` [Example 117, (R)-4-chloro-3-methyl-N-(3-(2-methylpyrrolidine-1-carbonyl)phenyl)benzenesulfonamide] in this work. An AC50 of over 100 µM was found for `C[C@@H]1CCCN1C(=O)c1cccc(NS(=O)(=O)c2ccc(C(F)(F)F)cc2)c1` [Example 118, (R)-N-(3-(2-methylpyrrolidine-1-carbonyl)phenyl)-4-(trifluoromethyl)benzenesulfonamide] in this work. An AC50 of over 100 µM was found for `Cc1cc(S(=O)(=O)Nc2cccc(C(=O)N3CCCC3)c2)c(C)cc1Cl` [Example 119, 4-chloro-2,5-dimethyl-N-(3-(pyrrolidine-1-carbonyl)phenyl) benzenesulfonamide] in this work. An AC50 of over 100 µM was found for `O=S(=O)(Nc1csc(-c2ccccc2)n1)c1ccc(Cl)cc1` [Example 120, 4-chloro-N-(2-phenylthiazol-4-yl)benzenesulfonamide] in this work. An AC50 of over 100 µM was found for `O=S(=O)(Nc1csc(-c2ccccc2)n1)c1cccnc1` [Example 121, N-(2-phenylthiazol-4-yl)pyridine-3-sulfonamide] in this work.
